In patent publication US9469645B2, “Compounds and compositions for the treatment of parasitic diseases” (Novartis AG, priority 2009, dated 2016):

Columns and labels:
[1] = test system: 3D7 P. falciparum strain; assay: parasite proliferation assay in infected red blood cells (SYBR Green I); format: cell-based, Plasmodium falciparum; settings: Plasmodium falciparum, 3D7, Erythrocyte, 3D7 strain; read-out: EC50 3D7 strain
Procedure, shortened: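 P. falciparum 3D7 grown in O+ human erythrocytes to 3–8% parasitemia and exposed to compounds. Proliferation read as the increase in parasite DNA. Detection used SYBR Green I in saponin/triton-X/EDTA lysis buffer, with overnight lysis at room temperature.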

[2] = test system: W2 strain; assay: parasite proliferation assay in infected red blood cells (SYBR Green I), W2 strain; format: cell-based; settings: Erythrocyte
Excerpt: Compounds of the invention can be assayed to measure their capacity to inhibit proliferation of parasitemia in infected red blood cells. The proliferation is quantified by the addition of SYBR Green I (INVITROGEN)® dye which has a high affinity for double stranded DNA.

SMILES	EC50 [1]	EC50 ([2]; Plasmodium falciparum)	EC50 [2]
Cc1ccc(-c2c(-c3ccc(F)cc3)nc3n2CCN(C(=O)CN)C3(C)C)cc1 [Compound 704, 2-amino-1-(2-(4-fluorophenyl)-8,8-dimethyl-3-p-tolyl-5,6-dihydroimidazo-[1,2-a]pyrazin-7(8H)-yl)ethanone]	236 nM	232 nM	
Cc1ccc(Nc2c(-c3ccc(F)cc3)nc3n2CCN(C(=O)C(O)c2cccc(C(F)(F)F)c2)C3)cc1 (stereo not drawn) [Compound 124]	40 nM		28 nM
Cc1ccc(Nc2c(-c3ccc(F)cc3)nc3n2CCN(C(=O)CNC2CC2)C3)cc1 [Compound 153]	60 nM		32 nM
CC(C)(C)OC(=O)N[C@@H](CC(=O)O)C(=O)N1CCn2c(nc(-c3cccc(F)c3)c2Nc2ccc(Cl)c(F)c2)C1 [Compound 240]	10500 nM		6990 nM
Cc1ccc(Nc2c(-c3ccc(F)cc3)nc3n2CCN(C(=O)[C@H](N)CC(=O)O)C3)cc1 [Compound 287]	4360 nM		7260 nM
CC(C)C[C@H](O)C(=O)N1CCn2c(nc(-c3ccc(F)cc3)c2Nc2ccc(Cl)c(F)c2)C1 [Compound 358]	130 nM		49 nM
CC1(C)c2nc(-c3ccc(F)cc3)c(Nc3cccc(Cl)c3)n2CCN1C(=O)CN [Compound 651]	8 nM	5 nM	
CN[C@@H](Cc1ccccc1)C(=O)N1CCn2c(nc(-c3ccc(F)cc3)c2Nc2ccc(C)cc2)C1 [Compound 149]	20 nM		11 nM
NCC(=O)N1CCn2c(nc(-c3ccc(F)cc3)c2Nc2ccc(F)cc2)C1 [Compound 4]	20 nM		23 nM
Cc1ccc(Nc2c(-c3ccc(F)cc3)nc3n2C(C)(C)CN(C)C3)cc1C#N [Compound 612]	6900 nM	6080 nM	
CC1(C)c2nc(-c3ccc(F)cc3)cn2CCN1C(=O)C(N)CC1CCCCC1 (stereo not drawn) [Compound 703]	8570 nM	8290 nM	
O=C(C1COCCN1)N1CCn2c(nc(-c3ccc(F)cc3)c2Nc2ccc(Cl)c(F)c2)C1 (stereo not drawn) [Compound 323]	1730 nM		1330 nM
CCCCN[C@H](C(=O)N1CCn2c(nc(-c3ccc(F)cc3)c2Nc2ccc(C)cc2)C1)c1ccccc1 [Compound 295]	210 nM		283 nM
CC[C@H](C(=O)N1CCn2c(nc(-c3ccc(F)cc3)c2Nc2ccc(C)cc2)C1)c1ccccc1 [Compound 225]	550 nM		316 nM
NCC(=O)N1CCn2c(nc(-c3cccc(F)c3)c2Nc2ccc(F)cc2)C1 [Compound 56]	10 nM		13 nM
CCn1nccc1Nc1c(-c2ccc(F)cc2)nc2n1CCN(C(=O)CN)C2(C)C [Compound 601]	3960 nM	4120 nM	
Fc1cccc(-c2nc3n(c2Nc2ccc(Cl)c(F)c2)CCNC3)c1 [Compound 217]	130 nM		106 nM
Cc1cc(Nc2c(-c3cccc(F)c3)nc3n2CC(=O)N(CCCO)C3(C)C)ccc1F [Compound 690]	866 nM	760 nM	
NCC(=O)N1CCn2c(nc(-c3ccc(F)cc3)c2Nc2cccc(F)c2)C1 [Compound 36]	50 nM		34 nM
N[C@@H](Cc1ccc(F)c(F)c1)C(=O)N1CCn2c(nc(-c3ccc(F)cc3)c2Nc2ccc(Cl)c(F)c2)C1 [Compound 319]	40 nM		27 nM
N[C@H](Cc1ccccc1)C(=O)N1CCn2c(nc(-c3ccc(F)cc3)c2Nc2ccc(F)cc2)C1 [Compound 20]	110 nM		121 nM

SMILES	EC50 [1]	EC50 ([2]; Plasmodium falciparum)	EC50 [2]
N[C@H](Cc1ccccc1)C(=O)N1CCn2c(nc(-c3ccc(F)cc3)c2Nc2ccc(Cl)c(F)c2)C1 [Compound 311]	90 nM		72 nM
C[C@H](C(=O)N1CCn2c(nc(-c3cccc(F)c3)c2Nc2ccc(Cl)c(F)c2)C1)c1ccccc1 [Compound 223]	260 nM		206 nM
CC1(C)CN(C(=O)CN)Cc2nc(-c3cccc(F)c3)c(Nc3ccc(F)cc3)n21 [Compound 621]	40 nM	45 nM	
CCCCCNc1ccc(C[C@H](N)C(=O)N2CCn3c(nc(-c4ccc(F)cc4)c3Nc3ccc(C)cc3)C2)cc1 [Compound 272]	3590 nM		3260 nM
Cc1ccc(Nc2c(-c3ccc(F)cc3)nc3n2CCN(C(=O)Cc2ccc(F)cc2)C3)cc1 [Compound 233]	10 nM		15 nM
CC1(C)c2nc(-c3ccc(F)cc3)c(N3CCC(N4CCCCC4)CC3)n2CCN1C(=O)CN [Compound 669]	3980 nM	> 10000 nM	
Cc1ccc(Nc2c(-c3ccc(F)cc3)nc3n2CCN(C(=O)[C@@H](N)CCCCNC(=O)CCOCCOCCOCCOCCNC(=O)CCCCC2SCC4NC(=O)NC42)C3)cc1 (stereo partly drawn) [Compound 159]	5700 nM		2910 nM
NCC(=O)N1CCn2c(nc(-c3ccc(F)cc3)c2Nc2ccc(F)cc2F)C1 [Compound 80]	60 nM		63 nM
N#Cc1ccc(Nc2c(-c3ccc(F)cc3)nc3n2CCN(C(=O)CN)C3)cc1 [Compound 264]	110 nM		154 nM
NCC(=O)N1CCn2c(nc(-c3ccc(F)cc3)c2NC2CCCC2)C1 [Compound 6]	4380 nM		4640 nM
Cc1c(Cc2ccccc2)nc2n1[C@H](CCc1ccccc1)C(=O)N[C@@H]2Cc1ccccc1 [Compound 289, (5R,8R)-2,8-dibenzyl-3-methyl-5-phenethyl-7,8-dihydroimidazo[1,2-a]pyrazin-6(5H)-one]	3880 nM		747 nM
Cc1ccc(Nc2c(-c3ccc(F)cc3)nc3n2CCN(C(=O)[C@@H](O)C(C)(C)C)C3)cc1 [Compound 110]	20 nM		15 nM
CC(=O)NCC(=O)N1CCn2c(nc(-c3ccc(F)cc3)c2Nc2ccc(F)cc2)C1 [Compound 25]	> 10600 nM		4350 nM
NCC(=O)N1CCn2c(nc(-c3ccccc3)c2Nc2ccc3c(c2)OCO3)C1 [Example 1, 2-amino-1-(3-(benzo[d][1,3]dioxol-5-ylamino)-2-phenyl-5,6-dihydroimidazo[1,2-a]pyrazin-7(8H)-yl)ethanone]	460 nM		473 nM
Cc1ccc(Nc2c(-c3ccc(F)cc3)nc3n2CCN(C(=O)Cc2cc(Cl)cc(Cl)c2)C3)cc1 [Compound 230]	320 nM		255 nM
CN(c1ccc(Cl)c(F)c1)c1c(-c2ccc(F)cc2)nc2n1CCNC2 [Compound 292, N-(4-chloro-3-fluorophenyl)-2-(4-fluorophenyl)-N-methyl-5,6,7,8-tetrahydro imidazo[1,2-a]pyrazin-3-amine]	150 nM		156 nM
Cc1ccc(Nc2c(-c3ccc(F)cc3)nc3n2CCN(C(=O)C(C)(C)N)C3)cc1F [Compound 631]	49 nM	62 nM	
CC(C)(N)C(=O)N1CCn2c(nc(-c3ccccc3)c2Nc2ccc(F)cc2)C1 [Compound 11]	200 nM		168 nM
CC(C)(N)C(=O)N1CCn2c(nc(-c3ccc(F)cc3)c2Nc2ccc(C(F)(F)F)cc2)C1 [Compound 72]	950 nM		589 nM
Cc1ccc(Nc2c(-c3ccc(F)cc3)nc3n2CCN(C(=O)[C@H]2CCCO2)C3)cc1 [Compound 199]	240 nM		157 nM
CCCC(=O)NCc1ccc(C[C@H](N)C(=O)N2CCn3c(nc(-c4ccc(F)cc4)c3Nc3ccc(C)cc3)C2)cc1 [Compound 218]	4710 nM		4010 nM
